Experimental data reported in patent EP3643303A1, “COMPOUNDS FOR USE IN THE TREATMENT OR PREVENTION OF FIBROTIC DISEASES; PHARMACEUTICAL, COSMETIC COMPOSITIONS AND USES THEREOF” (InnovativeHealth Group SL, priority 2018, dated 2020).

How the values were obtained:
α-SMA = α-SMA expression by Western blot in TGFβ-treated NIH-3T3 cells (myofibroblast differentiation); format: cell-based; settings: 1 h preincubation, TGFβ 10 ng/ml 24 h; Figure 5
Experimental: It is well known that TGFβ drives the conversion of fibroblasts into myofibroblasts, and the accumulation of myofibroblasts cells in fibrotic skin is a hallmark of SSc. Myofibroblasts are characterized by the novo synthesis of α-smooth muscle actin (a-SMA) fibers. To investigate α-SMA expression NIH-3T3 cells were preincubated with either (+)CBD or (-)CBD for 1 h and then treated with TFGβ (10 ng/ml) for 24 h. Cells were washed with PBS and proteins extracted in 50 µl of lysis buffer (50 mM Tris-HCl pH 7.5, 150 mM NaCl, 10% glycerol and 1% NP-40) supplemented with 10mM NaF, 1 mM Na3VO4, 10 µg/ml leupeptine, 1 µg/ml pepstatin and aprotinin, and 1 µl/ml PMSF saturated. Protein concentration was determined by the Bradford assay (Bio-Rad, CA, USA) and 30 µg of proteins were boiled at 95 °C in Laemmli buffer and electrophoresed in 10% SDS/PAGE gels. Separated proteins were transferred to PVDF membranes (20V for 30 min) and blocked in TBS solution containing 0.1% Tween 20 and 5% non-fat dry milk for 1 hour at room temperature. Immunodetection of specific proteins was carried out by incubation with primary antibody against α-SMA (1:500; sc-32251, Santa Cruz). After washing membranes, horseradish peroxidase-conjugated secondary antibody was added and detected by chemiluminescence system (GE Healthcare Europe GmbH). […]

human CB1 = target: T1, human CB1 (Homo sapiens, UniProt P21554); assay: CB1 antagonism assay (CRE-Luc reporter) in HEK-293T-CB1 cells stimulated with WIN-55,212-2; format: cell-based; settings: 15 min preincubation, then WIN-55,212-2 for 6 h; CRE-Luc luciferase; Figure 1
T1 construct: HEK-293T-CB1 (stably transfected with CB1 cDNA); expressed in transfected cells; host or cells: HEK-293T
Experimental: To investigate the biological activities of the CBD enantiomers on CB1 and TRPV1 receptors were performed functional assays in both HEK-293T-CB1 and HEK-293T-TRPV1 cells, which overexpress human CB1 and TRPV-1 receptors respectively. HEK-293T-CB1 (stably transfected with CB1 cDNA) were maintained in supplemented DMEM medium containing 10% FBS and 1% antibiotics penicillin/streptomycin (DMEM complete medium) at 37°C in a humidified atmosphere of 5% CO2. The cells were incubated in 24-well plates (1x10^5 cell/ml) and transiently transfected with 0,1 µg/ml of the plasmid CRE-Luc that contains six consensus cAMP responsive elements (CRE) linked to firefly luciferase. Transient transfections were performed with Rotifect (Carl Roth GmbH, Karlsruhe, Germany) according to the manufacturer's instructions and harvested 24 h after transfection. For CB1 antagonistic activity the transfected cells were incubated with increasing concentrations of the CBD enantiomers for 15 min and then stimulated with WIN-55, 212-2 (CB1 agonist), during 6 h and then luciferase activity measured in the cell lysates. […]

TRPV-1 = TRPV-1 (Homo sapiens, UniProt Q8NER1); settings: Bisogno et al. 2001; cited from earlier work
anandamide hydrolysis = settings: Bisogno et al. 2001; cited from earlier work
human COL1A2 promoter = assay: Col1A2 gene transcriptional activity (luciferase) in NIH-3T3-Col1A2-luc cells stimulated with TGFβ; format: cell-based, mouse; settings: TGFβ 10 ng/ml, 24 h; Figure 3
Excerpt: The effect of CBD isomers on collagen transcriptional regulation in NIH-3T3 cells stably expressing the Col1A2-luc plasmid, which encodes the gene promoter of the pro-alpha2 chain component of type I collagen fused to the luciferase gene, was studied. NIH-3T3-COL1A2-Luc fibroblast cells were generated by stable transfection of the COL-1A2-Luc plasmid, containing sequences from -353 to +58 bp of the human COL1A2 promoter fused to the luciferase reporter gene, and pPURO plasmid. Cells are cultivated at a density of 1 x 10^4 cells/ml for 24 h at 37°C. Then the cells were treated with the CBD isomers at several concentrations and TGFβ (10 ng/ml) for 24 h. Then, the cells are washed with PBS and lysed in 50 µl lysis buffer containing 25 mM Tris-phosphate (pH 7.8), 8 mM MgCl2, 1 mM DTT, 1% Triton X-100, and 7% glycerol during 15 min. Luciferase activity and protein concentration is measured in the cell lysates, to calculate the RLU/µg of protein and the results expressed as the percentage of induction considering the value obtained with TGFβ as 100% activation. The protein concentration in the cell extracts was measured by the Bradford method (BioRad).

[1] = tested on: normal human dermal fibroblasts (NHDFs); assay: Collagen secretion (Sircol Soluble Collagen Assay) in TGFβ-stimulated NHDFs; format: cell-based; settings: 1 h pre-treatment, TGFβ 24 h; Figure 4
Experimental: Next, NHDFs were used to correlate the effect of both isomers of CBD on Col1A2 transcriptional activity with collagen secretion. NHDFs were seeded in 24 well plates (5x10^4 cells/well), pre-treated with either (-)CBD or (+)CBD for 1 h and stimulated with TGFβ for the following 24 h. Collagen secretion was studied by collecting culture medium and measuring soluble collagen using the Sircol Soluble Collagen Assay (Biocolor, County Antrim, UK) following manufacturer's instructions.

T1 sequence (P21554 whole entry): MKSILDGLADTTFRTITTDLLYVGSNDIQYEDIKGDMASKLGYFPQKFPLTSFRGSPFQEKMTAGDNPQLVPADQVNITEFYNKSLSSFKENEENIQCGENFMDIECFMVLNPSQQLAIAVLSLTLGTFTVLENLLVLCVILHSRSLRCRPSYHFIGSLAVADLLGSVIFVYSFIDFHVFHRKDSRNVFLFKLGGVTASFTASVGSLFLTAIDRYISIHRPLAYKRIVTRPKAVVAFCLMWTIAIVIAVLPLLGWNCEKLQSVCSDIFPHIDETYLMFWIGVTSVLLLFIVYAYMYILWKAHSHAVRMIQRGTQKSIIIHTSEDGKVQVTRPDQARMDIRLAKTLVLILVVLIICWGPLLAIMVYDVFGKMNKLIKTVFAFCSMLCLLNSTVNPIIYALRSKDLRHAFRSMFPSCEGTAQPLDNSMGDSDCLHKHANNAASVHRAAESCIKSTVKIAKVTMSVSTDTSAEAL
Sequence of TRPV-1 (Q8NER1 whole entry, species assumed): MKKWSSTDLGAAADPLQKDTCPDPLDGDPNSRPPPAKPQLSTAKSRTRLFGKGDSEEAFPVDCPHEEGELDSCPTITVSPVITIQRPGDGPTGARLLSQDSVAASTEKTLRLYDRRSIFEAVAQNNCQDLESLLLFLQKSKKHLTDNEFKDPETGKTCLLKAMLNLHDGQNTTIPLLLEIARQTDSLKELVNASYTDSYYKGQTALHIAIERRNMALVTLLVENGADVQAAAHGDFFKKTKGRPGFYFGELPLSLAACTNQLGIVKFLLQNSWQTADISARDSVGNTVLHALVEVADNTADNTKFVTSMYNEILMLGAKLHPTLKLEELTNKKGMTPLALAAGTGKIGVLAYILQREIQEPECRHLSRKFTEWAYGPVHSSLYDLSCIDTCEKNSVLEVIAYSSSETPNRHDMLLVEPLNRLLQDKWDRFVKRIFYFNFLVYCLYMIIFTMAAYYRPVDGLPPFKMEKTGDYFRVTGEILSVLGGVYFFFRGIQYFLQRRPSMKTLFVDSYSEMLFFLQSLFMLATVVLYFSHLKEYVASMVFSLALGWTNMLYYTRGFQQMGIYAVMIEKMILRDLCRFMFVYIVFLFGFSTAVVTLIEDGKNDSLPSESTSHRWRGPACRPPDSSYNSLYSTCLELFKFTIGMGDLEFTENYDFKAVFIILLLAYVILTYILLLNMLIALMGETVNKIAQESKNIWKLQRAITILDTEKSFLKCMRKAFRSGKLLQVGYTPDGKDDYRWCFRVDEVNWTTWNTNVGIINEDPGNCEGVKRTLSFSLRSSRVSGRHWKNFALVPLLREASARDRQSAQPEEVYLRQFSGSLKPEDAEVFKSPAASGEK

Row | SMILES | expression α-SMA protein induced by TGFβ (α-SMA) | CB1 antagonistic activity (human CB1) | activity of the TRPV-1 (TRPV-1) | anandamide hydrolysis (anandamide hydrolysis) | collagen promoter transcriptional activity (human COL1A2 promoter) | TGFβ-induced collagen release and deposition [1]
1 | C=C(C)[C@@H]1CCC(C)=C[C@H]1c1c(O)cc(CCCCC)cc1O [(-)CBD, 2-[(1R,6R)-3-methyl-6-prop-1-en-2-ylcyclohex-2-en-1-yl]-5-pentylbenzene-1,3-diol] | attenuated | clear CB1 antagonistic activity | modulated | inhibited | significantly reduced | significantly inhibited
2 | C=C(C)[C@H]1CCC(C)=C[C@@H]1c1c(O)cc(CCCCC)cc1O [(+)CBD, (+)Cannabidiol] | attenuated | clear CB1 antagonistic activity | modulated | inhibited | significantly reduced | significantly inhibited
